From US8324390B2, “Tetrazole-substituted anthranilamides as pesticides” (Bayer CropScience AG, priority 2008, dated 2012)
Like-named read-outs stand apart in the source and are kept apart here.

How the values were obtained:
[1] = log P determination by HPLC (EEC Directive 79/831 Annex V.A8); format: physicochemical
Description: The measurements were carried out using an Agilent 1100 LC system with a 50*4.6 Zorbax Eclipse C18 1.8 μm column (oven temperature 55° C., flow rate 2.0 ml/min).
The following mobile phases were used:
Mobile phase A: acetonitrile+1000 μl of formic acid/l
Mobile phase B: Millipore water+900 μl of formic acid/l

[2] = tested on: caterpillars of the armyworm (Spodoptera frugiperda); assay: Spodoptera frugiperda test (SPODFR spray treatment); format: in vivo; conditions: Spodoptera frugiperda, in Zea mays, foliar, read-out: effect in % (caterpillars killed)
From the text: (§1) Solvent: 78.0 parts by weight of acetone

[3] = tested on: green peach aphid (Myzus persicae); assay: Myzus test (MYZUPE spray treatment); format: in vivo; conditions: Myzus persicae, in Brassica rapa, foliar, read-out: effect in % (aphids killed)
From the text: Solvent: 78 parts by weight of acetone
as §1

[4] = tested on: larvae of the mustard beetle (Phaedon cochleariae); assay: Phaedon test (PHAECO spray treatment); conditions: Phaedon cochleariae, in Brassica rapa, foliar, read-out: effect in % (beetle larvae killed)

Compound | chromatographic logP ([1]; log P) | pest or weed control at 100 g/ha [2] [%] | pest or weed control at 100 g/ha [3] [%] | pest or weed control at 100 g/ha [4] [%] | chromatographic logP ([1]; by HPLC according to EEC Directive 79/831 Annex V.A8, read-out: log P)
Cc1cc(C#N)cc(C(=O)NC(C)(C)C)c1NC(=O)c1cc(Cn2nnc(C3CC3)n2)nn1-c1ncccc1Cl [Example 105] | 2.93 | ≥ 80 | ≥ 80 | ≥ 80 | –
Cc1cc(C#N)cc(C(=O)NC2CC2)c1NC(=O)c1cc(Cn2nnc(C(F)(F)C(F)(F)C(F)(F)F)n2)nn1-c1ncccc1Cl [Example 113] | – | ≥ 80 | ≥ 80 | ≥ 80 | 3.58
Cc1cc(Br)cc(C(=O)NC(C)(C)C)c1NC(=O)c1cc(Cn2nnc(C(F)(F)F)n2)nn1-c1ncccc1Cl [Example 114] | 4 | ≥ 80 | ≥ 80 | ≥ 80 | –
Cc1cc(Cl)cc(C(=O)NC(C)C)c1NC(=O)c1cc(Cn2nnc(C(F)(F)C(F)(F)F)n2)nn1-c1ncccc1Cl [Example 129] | 3.94 | ≥ 80 | ≥ 80 | ≥ 80 | –
Cc1cc(C#N)cc(C(=O)NC(C)C2CC2)c1NC(=O)c1cc(Cn2nnc(C(F)(F)C(F)(F)F)n2)nn1-c1ncccc1Cl (centres unmarked) [Example 134] | 3.84 | ≥ 80 | ≥ 80 | ≥ 80 | –
CC(C)NC(=O)c1cc(Cl)cc(Cl)c1NC(=O)c1cc(Cn2nnc(C(F)(F)C(F)(F)F)n2)nn1-c1ncccc1Cl [Example 153] | 3.81 | ≥ 80 | ≥ 80 | ≥ 80 | –
CSC[C@H](C)NC(=O)c1cc(Cl)cc(Cl)c1NC(=O)c1cc(Cn2nnc(C(F)(F)C(F)(F)F)n2)nn1-c1ncccc1Cl [Example 154] | 4.02 | ≥ 80 | ≥ 80 | ≥ 80 | –
N#CCNC(=O)c1cc(Cl)cc(Cl)c1NC(=O)c1cc(Cn2nnc(C(F)(F)C(F)(F)F)n2)nn1-c1ncccc1Cl [Example 158] | 3.32 | ≥ 80 | ≥ 80 | ≥ 80 | –
Cc1cc(C#N)cc(C(=O)NCCC(F)(F)F)c1NC(=O)c1cc(Cn2nnc(C(F)(F)F)n2)nn1-c1ncccc1Cl [Example 159] | 3.22 | ≥ 80 | ≥ 80 | ≥ 80 | –
Cc1cc(C#N)cc(C(=O)NC(C)(C)C)c1NC(=O)c1cc(Cn2nnnc2C(F)(F)F)nn1-c1ncccc1Cl [Example 160] | 3.05 | ≥ 80 | ≥ 80 | ≥ 80 | –
CNC(=O)c1cc(Cl)cc(C)c1NC(=O)c1cc(Cn2nnnc2C(F)(F)F)nn1-c1ncccc1Cl [Example 161] | 2.63 | ≥ 80 | ≥ 80 | ≥ 80 | –
Cc1cc(Cl)cc(C(=O)NC2CC2)c1NC(=O)c1cc(Cn2nnnc2C(F)(F)F)nn1-c1ncccc1Cl [Example 163] | 2.89 | ≥ 80 | ≥ 80 | ≥ 80 | –
Cc1cc(C#N)cc(C(=O)NC(C)C)c1NC(=O)c1cc(Cn2nnnc2C(F)(F)F)nn1-c1ncccc1Cl [Example 165] | 2.72 | ≥ 80 | ≥ 80 | ≥ 80 | –
Cc1cc(C#N)cc(C(=O)NC2CC2)c1NC(=O)c1cc(Cn2nnnc2C(F)(F)F)nn1-c1ncccc1Cl [Example 166] | 2.53 | ≥ 80 | ≥ 80 | ≥ 80 | –
CNC(=O)c1cc(F)cc(C)c1NC(=O)c1cc(Cn2nnnc2C(F)(F)F)nn1-c1ncccc1Cl [Example 167] | 2.32 | ≥ 80 | ≥ 80 | ≥ 80 | –
Cc1cc(F)cc(C(=O)NC(C)C)c1NC(=O)c1cc(Cn2nnnc2C(F)(F)F)nn1-c1ncccc1Cl [Example 168] | 2.76 | ≥ 80 | ≥ 80 | ≥ 80 | –
Cc1cc(F)cc(C(=O)NC2CC2)c1NC(=O)c1cc(Cn2nnnc2C(F)(F)F)nn1-c1ncccc1Cl [Example 169] | 2.57 | ≥ 80 | ≥ 80 | ≥ 80 | –
CNC(=O)c1cc(Br)cc(C)c1NC(=O)c1cc(Cn2nnnc2C(F)(F)F)nn1-c1ncccc1Cl [Example 170] | 2.72 | ≥ 80 | ≥ 80 | ≥ 80 | –

Compound | chromatographic logP ([1]; log P) | pest or weed control at 100 g/ha [2] [%] | pest or weed control at 100 g/ha [3] [%] | pest or weed control at 100 g/ha [4] [%] | chromatographic logP ([1]; by HPLC according to EEC Directive 79/831 Annex V.A8, read-out: log P)
Cc1cc(Br)cc(C(=O)NC(C)C)c1NC(=O)c1cc(Cn2nnnc2C(F)(F)F)nn1-c1ncccc1Cl [Example 171] | 3.22 | ≥ 80 | ≥ 80 | ≥ 80 | –
CNC(=O)c1cc(I)cc(C)c1NC(=O)c1cc(Cn2nnnc2C(F)(F)F)nn1-c1ncccc1Cl [Example 172] | 2.86 | ≥ 80 | ≥ 80 | ≥ 80 | –
Cc1cc(I)cc(C(=O)NC(C)C)c1NC(=O)c1cc(Cn2nnnc2C(F)(F)F)nn1-c1ncccc1Cl [Example 173] | 3.36 | ≥ 80 | ≥ 80 | ≥ 80 | –
Cc1cc(I)cc(C(=O)NC2CC2)c1NC(=O)c1cc(Cn2nnnc2C(F)(F)F)nn1-c1ncccc1Cl [Example 174] | 3.12 | ≥ 80 | ≥ 80 | ≥ 80 | –
CC(C)(C)NC(=O)c1cc(Cl)cc(Cl)c1NC(=O)c1cc(Cn2nnnc2C(F)(F)F)nn1-c1ncccc1Cl [Example 177] | 3.43 | ≥ 80 | ≥ 80 | ≥ 80 | –
Cc1cc(C)c(NC(=O)c2cc(Cn3nnnc3C(F)(F)F)nn2-c2ncccc2Cl)c(C(=O)NC2CC2)c1 [Example 180] | 2.71 | ≥ 80 | ≥ 80 | ≥ 80 | –
Cc1cc(Br)cc(C(=O)NC2CC2)c1NC(=O)c1cc(Cn2nnnc2C(F)(F)F)nn1-c1ncccc1Cl [Example 181] | 2.99 | ≥ 80 | ≥ 80 | ≥ 80 | –
Cc1cc(Br)cc(C(=O)NC(C)(C)C)c1NC(=O)c1cc(Cn2nnnc2C(F)(F)F)nn1-c1ncccc1Cl [Example 182] | 3.62 | ≥ 80 | ≥ 80 | ≥ 80 | –
Cc1cc(I)cc(C(=O)NC(C)(C)C)c1NC(=O)c1cc(Cn2nnnc2C(F)(F)F)nn1-c1ncccc1Cl [Example 183] | 3.74 | ≥ 80 | ≥ 80 | ≥ 80 | –
Cc1cc(C#N)cc(C(=O)NC2CCC2)c1NC(=O)c1cc(Cn2nnnc2C(F)(F)F)nn1-c1ncccc1Cl [Example 186] | 2.83 | ≥ 80 | ≥ 80 | ≥ 80 | –
CCNC(=O)c1cc(C#N)cc(C)c1NC(=O)c1cc(Cn2nnnc2C(F)(F)F)nn1-c1ncccc1Cl [Example 191] | 2.5 | ≥ 80 | ≥ 80 | ≥ 80 | –
Cc1cc(C#N)cc(C(=O)NC(C2CC2)C2CC2)c1NC(=O)c1cc(Cn2nnnc2C(F)(F)F)nn1-c1ncccc1Cl [Example 196] | 3.28 | ≥ 80 | ≥ 80 | ≥ 80 | –
Cc1cc(Cl)cc(C(=O)NC2CC2)c1NC(=O)c1cc(Cn2nnnc2C(F)(F)C(F)(F)F)nn1-c1ncccc1Cl [Example 200] | 3.32 | ≥ 80 | ≥ 80 | ≥ 80 | –
Cc1cc(Cl)cc(C(=O)NC(C)C)c1NC(=O)c1cc(Cn2nnnc2C(F)(F)C(F)(F)F)nn1-c1ncccc1Cl [Example 201] | 3.59 | ≥ 80 | ≥ 80 | ≥ 80 | –
Cc1cc(C#N)cc(C(=O)NC(C)C2CC2)c1NC(=O)c1cc(Cn2nnnc2C(F)(F)C(F)(F)F)nn1-c1ncccc1Cl (centres unmarked) [Example 203] | 3.48 | ≥ 80 | ≥ 80 | ≥ 80 | –
CCOCCNC(=O)c1cc(C#N)cc(C)c1NC(=O)c1cc(Cn2nnc(C(F)(F)F)n2)nn1-c1ncccc1Cl [Example 211] | 2.99 | ≥ 80 | ≥ 80 | ≥ 80 | –
Cc1cc(C#N)cc(C(=O)NC2CC2)c1NC(=O)c1cc(Cn2nnc(C(F)(F)C(F)(F)F)n2)nn1-c1ncccc1Cl [Example 214] | 3.26 | ≥ 80 | ≥ 80 | ≥ 80 | –
